Some test systems named below: 786-0 renal; A549 NSCLC; ACHN renal; HCC-2998 colon; HCT-15 colon; HL-60(TB) leukemia; OVCAR-3 ovarian; SW-620 colon; U251 CNS; UO-31 renal.
Holding throughout (test): inhibition of tumour cell growth, NCI panel, 48 h

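48-hour exposure; five concentrations; linearly interpolated endpoints. The concentration for 50% growth inhibition is given as GI50. TGI marks complete inhibition of growth.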 A value given as a limit tells only on which side of the number the result lay.

`CC(CCCOC(c1ccccc1)(c1ccccc1)c1ccccc1)OC(=O)Nc1cc([N+](=O)[O-])cc([N+](=O)[O-])c1` (stereo not given): the TGI in the experiment on 786-0 renal was 94.9 µM; in the experiment with A549 NSCLC it was above 100 µM; in the experiment on ACHN renal it was 93.5 µM; in the experiment with HCC-2998 colon, above 100 µM; in the experiment on HCT-15 colon, above 100 µM; in the experiment on HL-60(TB) leukemia it was 85.3 µM. Besides, the TGI in the experiment on OVCAR-3 ovarian was above 100 µM; in the experiment with SW-620 colon, above 100 µM; in the experiment on U251 CNS, 83.8 µM; in the experiment with UO-31 renal, above 100 µM.
Regarding `CCOC(=O)c1c(C)n(Cc2ccc(Cl)cc2Cl)c2c1cc1oc(=O)c(=O)n3c(Cc4ccccc4)nc2c13`, the GI50 with 786-0 renal is 5.18 µM; in the experiment on A549 NSCLC it was 3.64 µM; in the experiment on ACHN renal, 3.06 µM; with HCC-2998 colon, 2.25 µM; in the experiment on HCT-15 colon it was 3.92 µM; with HL-60(TB) leukemia, 2.09 µM. For the same molecule, the GI50 with OVCAR-3 ovarian is 1.91 µM; in the experiment on SW-620 colon it was 1.95 µM; in the experiment with U251 CNS, 2.45 µM; in the experiment on UO-31 renal, 3.77 µM. The TGI came out at 19.2 µM in the experiment on 786-0 renal; 13.5 µM in the experiment with A549 NSCLC; 11.8 µM in the experiment on ACHN renal; 5.04 µM in the experiment on HCC-2998 colon; 14.8 µM in the experiment with HCT-15 colon; 6.09 µM in the experiment with HL-60(TB) leukemia. The TGI in the experiment with OVCAR-3 ovarian amounted to 4.44 µM; with SW-620 colon, 4.3 µM; in the experiment on U251 CNS, 6.5 µM; with UO-31 renal, 15 µM.
For the molecule `COc1cc2cc(Oc3ccc(NC(=O)c4ccc(Cl)c(C(F)(F)F)c4)cc3)c(C)nc2cc1OC`, the GI50 in the experiment with 786-0 renal is 12.1 µM; in the experiment on A549 NSCLC, 10.3 µM; in the experiment with ACHN renal, 10.8 µM; in the experiment with HCC-2998 colon, 41.7 µM; with HCT-15 colon, 12.3 µM; in the experiment with HL-60(TB) leukemia it was 20.8 µM. The GI50 is 7.94 µM in the experiment with OVCAR-3 ovarian, 33.7 µM in the experiment on SW-620 colon, 8.72 µM in the experiment with U251 CNS and 9.82 µM in the experiment with UO-31 renal. For the same molecule, the TGI is above 100 µM with 786-0 renal; above 100 µM with A549 NSCLC; above 100 µM with ACHN renal; above 100 µM in the experiment with HCC-2998 colon; above 100 µM in the experiment with HCT-15 colon; 82 µM with HL-60(TB) leukemia. In addition, the TGI with OVCAR-3 ovarian is 54 µM; in the experiment with SW-620 colon, above 100 µM; in the experiment with U251 CNS it was above 100 µM; in the experiment with UO-31 renal, above 100 µM.
Take `Cc1cc(N2CCCC2)nc(N(CCCNc2ccnc3cc(Cl)ccc23)Cc2ccc3c(c2)OCO3)n1`: the GI50 was 1.11 µM in the experiment with 786-0 renal; 2.74 µM with A549 NSCLC; 1.67 µM in the experiment with ACHN renal; 1.79 µM with HCC-2998 colon; 0.805 µM in the experiment on HCT-15 colon; 0.402 µM with HL-60(TB) leukemia. Also, the GI50 with OVCAR-3 ovarian was 1.06 µM; with SW-620 colon it was 1.21 µM; with U251 CNS, 1.57 µM; in the experiment with UO-31 renal it was 0.677 µM. The TGI in the experiment on 786-0 renal was found to be 2.8 µM; in the experiment with A549 NSCLC, 12.5 µM; in the experiment with ACHN renal, 5.93 µM; in the experiment on HCC-2998 colon it was 3.79 µM; in the experiment on HCT-15 colon it was 5.82 µM; in the experiment with HL-60(TB) leukemia it was 1.36 µM. Moreover, the TGI was determined as 2.87 µM with OVCAR-3 ovarian, 2.87 µM in the experiment on SW-620 colon, 5.2 µM in the experiment on U251 CNS and 3.71 µM in the experiment on UO-31 renal.
As to `CC(=O)NC(CCCN(Cc1ccccc1)C(=O)N(CCCl)N=O)C(=O)NCc1ccccc1` (stereo not given), the TGI in the experiment with 786-0 renal was above 58.7 µM; in the experiment on A549 NSCLC, above 100 µM; in the experiment on ACHN renal, above 96.3 µM; in the experiment with HCC-2998 colon, above 100 µM; in the experiment on HCT-15 colon, above 100 µM; in the experiment with HL-60(TB) leukemia, 57.1 µM. For the same molecule, the TGI in the experiment on OVCAR-3 ovarian, with SW-620 colon, in the experiment with U251 CNS and in the experiment with UO-31 renal was above 100 µM throughout.
On to `O=C(NN1C(=O)CSC1c1ccc(Cl)cc1)c1[nH]c2ccc(F)cc2c1-c1ccccc1` (stereo not given), for which the GI50 in the experiment with 786-0 renal was 1.89 µM; in the experiment on A549 NSCLC, 3.58 µM; in the experiment on ACHN renal, 3.28 µM; in the experiment on HCC-2998 colon it was 2.31 µM; in the experiment on HCT-15 colon it was 3.9 µM; in the experiment on HL-60(TB) leukemia, 2.75 µM. In addition, the GI50 is 1.85 µM in the experiment on OVCAR-3 ovarian, 2.98 µM with SW-620 colon, 3.14 µM with U251 CNS and 4.07 µM in the experiment with UO-31 renal. Besides, the TGI is 3.6 µM in the experiment on 786-0 renal; 15.6 µM in the experiment with A549 NSCLC; 12.2 µM in the experiment with ACHN renal; 5.63 µM with HCC-2998 colon; 14.3 µM in the experiment on HCT-15 colon; 7.71 µM in the experiment with HL-60(TB) leukemia. Besides, the TGI in the experiment on OVCAR-3 ovarian was 3.53 µM; in the experiment with SW-620 colon it was 8.92 µM; with U251 CNS, 8.38 µM; in the experiment with UO-31 renal it was 13.7 µM.
Take `C=C(N=[N+]=[N-])c1cn(C2CC(O)C(CO)O2)c(=O)[nH]c1=O` (stereo not given): the TGI in the experiment on 786-0 renal, in the experiment with A549 NSCLC, in the experiment with ACHN renal, in the experiment on HCC-2998 colon, in the experiment with HCT-15 colon and in the experiment with HL-60(TB) leukemia was above 100 µM each time. The TGI in the experiment with OVCAR-3 ovarian, in the experiment with SW-620 colon, in the experiment with U251 CNS and in the experiment on UO-31 renal was above 100 µM in each case.
Regarding `Cc1ncc([N+](=O)[O-])n1CCNC(=O)CCCn1cnc([N+](=O)[O-])n1`, the TGI with 786-0 renal, in the experiment with A549 NSCLC, with ACHN renal, in the experiment with HCC-2998 colon, in the experiment with HCT-15 colon and in the experiment on HL-60(TB) leukemia was above 100 µM throughout. Also, the TGI in the experiment on OVCAR-3 ovarian, with SW-620 colon, in the experiment on U251 CNS and in the experiment on UO-31 renal was above 100 µM each time.
Consider `CN(C)c1ccc(C(N)=O)cn1`, for which the TGI in the experiment with 786-0 renal, with A549 NSCLC, in the experiment on ACHN renal, in the experiment with HCC-2998 colon, with HCT-15 colon and in the experiment on HL-60(TB) leukemia was above 100 µM throughout. In addition, the TGI in the experiment on OVCAR-3 ovarian, in the experiment with SW-620 colon, in the experiment with U251 CNS and in the experiment with UO-31 renal was above 100 µM in each case.
Turning to `CCCCCCCCCCCCC(=O)[O-].CCCCCCCCCCCCC(=O)[O-].CCCCCCCCCCCCC(=O)[O-].CCCCCCCCCCCCC(=O)[O-].[Mo+2].[Mo+2]`, the GI50 is 3.68 µM in the experiment on 786-0 renal; 14.9 µM in the experiment on A549 NSCLC; 16 µM in the experiment with ACHN renal; 19.9 µM with HCC-2998 colon; 10.4 µM with HCT-15 colon; 2.82 µM in the experiment with HL-60(TB) leukemia. Also, the GI50 with OVCAR-3 ovarian was 12.4 µM; with SW-620 colon, 15.1 µM; with U251 CNS, 10.7 µM; in the experiment on UO-31 renal, 14.7 µM. The TGI is 16 µM in the experiment on 786-0 renal; 44.2 µM with A549 NSCLC; 30.4 µM in the experiment on ACHN renal; 49.8 µM in the experiment with HCC-2998 colon; 22.1 µM in the experiment on HCT-15 colon; 7.8 µM in the experiment on HL-60(TB) leukemia. The TGI with OVCAR-3 ovarian was found to be 24.9 µM; in the experiment on SW-620 colon, 29 µM; with U251 CNS, 22.6 µM; in the experiment with UO-31 renal it was 41.9 µM.
Turning to `Oc1cc(Cl)ccc1Oc1ccc(Cl)cc1Cl`, the GI50 in the experiment on 786-0 renal was 2.47 µM; in the experiment on A549 NSCLC, 2.6 µM; in the experiment with ACHN renal, 3.47 µM; in the experiment with HCC-2998 colon, 2.57 µM; with HCT-15 colon, 3.31 µM; in the experiment on HL-60(TB) leukemia it was 3.31 µM. Moreover, the GI50 with OVCAR-3 ovarian is 5.21 µM; in the experiment with SW-620 colon, 3.51 µM; in the experiment on U251 CNS, 2.73 µM; in the experiment with UO-31 renal it was 2.76 µM. The TGI in the experiment with 786-0 renal is 6.61 µM; in the experiment on A549 NSCLC, 8.12 µM; with ACHN renal, 11.3 µM; in the experiment on HCC-2998 colon it was 6.61 µM; in the experiment with HCT-15 colon, 10.9 µM; in the experiment with HL-60(TB) leukemia, 8.31 µM. Also, the TGI amounted to 17.2 µM in the experiment on OVCAR-3 ovarian, 12.7 µM with SW-620 colon, 10.1 µM in the experiment with U251 CNS and 12 µM in the experiment with UO-31 renal.

The record behind these values is PubChem BioAssay (NCI).
